Data: patent US4288590A, “7 -[Dα-(4-Hydroxy-1,5-naphthyridine-3-carboxamido)-α-arylacetam ido]-3-(N,N-dimethyl-aminomethylpyridinium) methyl-3-cephem-4-carboxylates” (Bristol-Myers Company, priority 1980, dated 1981)

Legend:
K. pneumoniae A9977 = assay: In vivo efficacy, experimental infection in mice; conditions: Klebsiella pneumoniae, A9977, in Mus musculus, im, 120 h, read-out: PD50 (median protective dose)
Procedure: (§3) The mice were treated with test compound by im route immediately after the bacterial challenge.

[1] = Mouse blood levels after intramuscular administration (Table 3); assay type: in vivo; conditions: im, read-out: Blood level; for concentration at 0.25 h: 15'; for concentration at 0.5 h: 30'; for concentration at 1 h: 60'; for concentration at 2 h: 120'
Procedure: (§1) […] The blood samples were collected from the orbital sinuses into heparinized capillary tubes at 15, 30, 60 and 120 minutes after administration. The antibiotic concentration was determined by the paper disc-agar diffusion method using E. coli NIHJ or S. lutea PCI 1001 as the assay organism.

P. morganii A15153 = assay: In vivo efficacy, experimental infection in mice; conditions: Morganella morganii, A15153, in Mus musculus, im, 120 h, read-out: PD50 (median protective dose)
Procedure: as §3

P. aeruginosa A21509 = assay: In vivo efficacy, experimental infection in mice; conditions: Pseudomonas aeruginosa, A21509, in Mus musculus, im, 120 h, read-out: PD50 (median protective dose)
Procedure: as §3

P. aeruginosa A9843 = assay: In vivo efficacy, experimental infection in mice; conditions: Pseudomonas aeruginosa, A9843, in Mus musculus, im, 120 h, read-out: PD50 (median protective dose)
Procedure: as §3

E. coli Juhl A15119 = assay: In vivo efficacy, experimental infection in mice; conditions: Escherichia coli, JUHLA15119, in Mus musculus, im, 120 h, read-out: PD50 (median protective dose)
Procedure: as §3

S. aureus BX-1633 A9606 = assay: In vivo efficacy, experimental infection in mice; conditions: Staphylococcus aureus, BX1633A9606, in Mus musculus, im, 120 h, read-out: PD50 (median protective dose)
Procedure: as §3

E. coli (Gn-Ia) = assay: In vitro activity, MIC of strain group (Table 2); assay type: cell-based; conditions: Escherichia coli, 7 strains, read-out: Geometric mean of MIC
Procedure: (§2) Minimum inhibitory concentrations (MIC) of BB-S 651, BB-S 669 and BB-S 676 were determined by serial two-fold agar dilution method using Steers' apparatus on Mueller-Hinton agar plate against 15 test organisms for primary screening as shown in Table 1.

P. aeruginosa = assay: In vitro activity, MIC of strain group (Table 2); assay type: cell-based; conditions: Pseudomonas aeruginosa; Gn-III P. aeruginosa, 32 strains; read-out: Geometric mean of MIC
Procedure: as §2

P. mirabilis (Gn-Ib) = assay: In vitro activity, MIC of strain group (Table 2); assay type: cell-based; conditions: Proteus mirabilis, 2 strains, read-out: Geometric mean of MIC
Procedure: as §2

Indole(+) Proteus sp. = assay: In vitro activity, MIC of strain group (Table 2); assay type: cell-based; conditions: Gn-II Indole(+) Proteus sp., 8 strains; read-out: Geometric mean of MIC
Procedure: as §2

P. mirabilis (Gn-Ia) = assay: In vitro activity, MIC of strain group (Table 2); assay type: cell-based; conditions: Proteus mirabilis, 6 strains, read-out: Geometric mean of MIC
Procedure: as §2

P. putida = assay: In vitro activity, MIC of strain group (Table 2); assay type: cell-based; conditions: Pseudomonas putida; Gn-III P. putida, 5 strains; read-out: Geometric mean of MIC
Procedure: as §2

P. stuartii = assay: In vitro activity, MIC of strain group (Table 2); assay type: cell-based; conditions: Providencia stuartii; Gn-II P. stuartii, 5 strains; read-out: Geometric mean of MIC
Procedure: as §2

Neisseria sp. = assay: In vitro activity, MIC of strain group (Table 2); assay type: cell-based; conditions: Gn-IV Neisseria sp., 6 strains; read-out: Geometric mean of MIC
Procedure: as §2

P. cepacia = assay: In vitro activity, MIC of strain group (Table 2); assay type: cell-based; conditions: Burkholderia cepacia; Gn-III P. cepacia, 4 strains; read-out: Geometric mean of MIC
Procedure: as §2

S. aureus (Gp-Ia) = assay: In vitro activity, MIC of strain group (Table 2); assay type: cell-based; conditions: Staphylococcus aureus, 12 strains, read-out: Geometric mean of MIC
Procedure: as §2

K. pneumoniae (Gn-Ia) = assay: In vitro activity, MIC of strain group (Table 2); assay type: cell-based; conditions: Klebsiella pneumoniae, 10 strains, read-out: Geometric mean of MIC
Procedure: as §2

S. pneumoniae = assay: In vitro activity, MIC of strain group (Table 2); assay type: cell-based; conditions: Streptococcus pneumoniae; Gp-II S. pneumoniae, 9 strains; read-out: Geometric mean of MIC
Procedure: as §2

K. pneumoniae (Gn-Ib) = assay: In vitro activity, MIC of strain group (Table 2); assay type: cell-based; conditions: Klebsiella pneumoniae, 5 strains, read-out: Geometric mean of MIC
Procedure: as §2

P. maltophilia = assay: In vitro activity, MIC of strain group (Table 2); assay type: cell-based; conditions: Stenotrophomonas maltophilia; Gn-III P. maltophilia, 13 strains; read-out: Geometric mean of MIC
Procedure: as §2

[2] = Additional mouse blood levels after intramuscular administration (Table 4); assay type: in vivo; conditions: mice, im, read-out: Blood level
Procedure: as §1

S. aureus Smith A9537 = assay: In vivo efficacy, experimental infection in mice; conditions: Staphylococcus aureus, SMITHA9537, in Mus musculus, im, 120 h, read-out: PD50 (median protective dose)
Procedure: as §3

P. mirabilis A9900 = assay: In vivo efficacy, experimental infection in mice; conditions: Proteus mirabilis, A9900, in Mus musculus, im, 120 h, read-out: PD50 (median protective dose)
Procedure: as §3

S. pyogenes A20201 = assay: In vivo efficacy, experimental infection in mice; conditions: Streptococcus pyogenes, A20201, in Mus musculus, im, 120 h, read-out: PD50 (median protective dose)
Procedure: as §3

Structure (SMILES): CCN1CCN(C(=O)N[C@@H](C(=O)N[C@@H]2C(=O)N3C(C(=O)O)=C(CSc4nnnn4C)CS[C@H]23)c2ccc(O)cc2)C(=O)C1=O [Cefoperazone, reference compound]
- ED50 (K. pneumoniae A9977): 0.6 mg/kg
- concentration at 0.25 h ([1]; 10 mg/kg): 3500 ng/mL
- concentration at 0.5 h ([1]; 10 mg/kg): 1800 ng/mL
- concentration at 1 h ([1]; 10 mg/kg): < 400 ng/mL
- concentration at 2 h ([1]; 10 mg/kg): < 400 ng/mL
- concentration at 0.25 h ([1]; 20 mg/kg): 9000 ng/mL
- concentration at 0.5 h ([1]; 20 mg/kg): 5500 ng/mL
- concentration at 1 h ([1]; 20 mg/kg): 1300 ng/mL
- concentration at 2 h ([1]; 20 mg/kg): < 400 ng/mL
- concentration at 0.25 h ([1]; 40 mg/kg): 19000 ng/mL
- concentration at 0.5 h ([1]; 40 mg/kg): 14000 ng/mL
- concentration at 1 h ([1]; 40 mg/kg): 2500 ng/mL
- concentration at 2 h ([1]; 40 mg/kg): < 400 ng/mL
- ED50 (P. morganii A15153): 6.3 mg/kg
- ED50 (P. aeruginosa A21509): 30 mg/kg
- ED50 (P. aeruginosa A9843): 20 mg/kg
- ED50 (E. coli Juhl A15119): 1.1 mg/kg
- ED50 (S. aureus BX-1633 A9606): 1.6 mg/kg
- MIC (E. coli (Gn-Ia)): 0.2 µg/mL
- MIC (P. aeruginosa): 11 µg/mL
- MIC (P. mirabilis (Gn-Ib)): 12.5 µg/mL
- MIC (Indole(+) Proteus sp.): 3.5 µg/mL
- MIC (P. mirabilis (Gn-Ia)): 0.8 µg/mL
- MIC (P. putida): > 100 µg/mL
- MIC (P. stuartii): 0.8 µg/mL
- MIC (Neisseria sp.): 0.8 µg/mL
- MIC (P. cepacia): > 100 µg/mL
- MIC (S. aureus (Gp-Ia)): 1.6 µg/mL
- MIC (K. pneumoniae (Gn-Ia)): 0.9 µg/mL
- MIC (S. pneumoniae): 0.8 µg/mL
- MIC (K. pneumoniae (Gn-Ib)): 100 µg/mL
- MIC (P. maltophilia): 47 µg/mL
- concentration at 0.5 h ([2]; 10 mg/kg, dose 10, 1/2 hour): 3500 ng/mL
- concentration at 0.25 h ([2]; 10 mg/kg, dose 10, 1/4 hour): 5000 ng/mL
- concentration at 1 h ([2]; 10 mg/kg, dose 10, 1 hour): 1200 ng/mL
- concentration at 2 h ([2]; 10 mg/kg, dose 10, 2 hour): < 800 ng/mL
- concentration at 0.5 h ([2]; 20 mg/kg, dose 20, 1/2 hour): 6300 ng/mL
- concentration at 0.25 h ([2]; 20 mg/kg, dose 20, 1/4 hour): 10500 ng/mL
- concentration at 1 h ([2]; 20 mg/kg, dose 20, 1 hour): 2500 ng/mL
- concentration at 2 h ([2]; 20 mg/kg, dose 20, 2 hour): < 800 ng/mL
- concentration at 0.5 h ([2]; 40 mg/kg, 1/2 hour): 12000 ng/mL
- concentration at 0.25 h ([2]; 40 mg/kg, 1/4 hour): 18000 ng/mL
- concentration at 1 h ([2]; 40 mg/kg, 1 hour): 5400 ng/mL
- concentration at 2 h ([2]; 40 mg/kg, 2 hour): 1200 ng/mL
- ED50 (S. aureus Smith A9537): 2.4 mg/kg
- ED50 (P. mirabilis A9900): 6.3 mg/kg
- ED50 (S. pyogenes A20201): 2.5 mg/kg
